Measured values: patent US20030153506A1, “Combination product comprising melagatran and factor VIIa inhibitor” (priority 2000, published 2003)
pIC50: −log10 of the molar value.

Tests used:
[1] = test system: Platelet poor plasma; assay: APTT clotting time in spiked platelet poor plasma, synergy model (Berenbaum); type: biochemical, human; details: for concentration of A required to reach the same APTT prolongation as that of the mixture (Ae): calculated from Eq 1; for concentration of B required to reach the same APTT prolongation as that of the mixture (Be): calculated from Eq 2
Procedure: Human blood from healthy volunteers, both men and women, was collected in 50 mL conical plastic tubes containing 5 mL of 0.13 mol/L of buffered tri-sodium citrate. The blood was immediately chilled on ice and centrifuged at […] for 20 minutes. Platelet poor plasma was then divided into fractions of 10 mL each and “spiked” with melagatran (Compound A) or with the title compound of Example 1 above (Compound B) to a final concentration that prolonged APTT by approximately 20%, 40%, 60% and 100%, respectively.
APTT was determined as follows: 100 μL of pre-warmed APTT reagent (Stago Diagnostica) was added to 100 μL of pre-warmed plasma and incubated for 180 s at 37° C. Coagulation was initiated by the addition of 100 μL of CaCl2 (0.025 mol/L). The clotting time was measured with a KC 10 Coagulometer, coupled to a CR-A calculator, CR 10 printer and PR60 heat block (Amelung GmbH, Lemago Germany). Each clotting test was performed in duplicate and the mean clotting time was used.
APTT for Compound A and Compound B were tested at 4 different concentrations and the results are shown in Table 1, in which Cp A and Cp B are the plasma concentrations of Compounds A and B, respectively. APTT values are expressed in seconds and, within brackets, as percentage prolongation over the baseline value.
In order to test a possible synergistic effect between Compounds A and B the following model was used. The concentrations of Compounds A and B that caused about 20%, 40% and 60% prolongation of APTT were first determined (Table 1). Equipotent concentrations of Compounds A and B, e.g. 0.08 μmol/L of A and 1.5 μmol/L of B, were then mixed and APTT for the mixtures were determined as above. An indication of synergy is obtained if APTT for this mixture is longer than APTT for a “mixture” of equipotent concentrations of Compound A itself (i.e. Compound A+Compound A at a concentration that prolongs APTT by 20% (0.08 μmol/L+0.08 μmol/L=0.16 μmol/L)). However, a true synergistic effect between two compounds can never be established unless the dose response curves for both individual compounds are known and all data applied to the algebraic model of Berenbaum's equation (see Clin. Exp. Immunol. (1977) 28, 18): […]
(Cp A in mixture/Ae)+(Cp B in mixture/Be)<1
In this equation, CpA and CpB are the plasma concentrations of Compounds A and B, respectively in the mixture, and Ae and Be are individual concentrations of Compounds A and B that are required to obtain the same APTT results as that of the mixture. These concentrations can be calculated from the linear dose-responses for Compounds A and B, respectively (Equations 1 and 2).

[2] = target: T1, Human α-thrombin (Homo sapiens, UniProt P00734); assay: Test B: thrombin inhibition, chromogenic robotic assay; type: biochemical; details: S-2366 0.30 mmol/L, 40 min 37° C.
T1 construct: Human α-thrombin, Sigma Chemical Co. or Hematologic Technologies; purchased Sigma Chemical Co. or Hematologic Technologies
Procedure: Determination of Thrombin Inhibition with a Chromogenic, Robotic Assay
Thrombin inhibitor potency was measured with a chromogenic substrate method, in a Plato 3300 robotic microplate processor (Rosys AG, CH-8634 Hombrechtikon, Switzerland), using 96-well, half volume microtitre plates (Costar, Cambridge, Mass., U.S.A.; Cat No 3690). Stock solutions of test substance in DMSO (72 μL), 0.1-1 mmol/L, were diluted serially 1:3 (24+48 μL) with DMSO to obtain ten different concentrations, which were analysed as samples in the assay. 2 μL of test sample was diluted with 124 μL assay buffer, 12 μL of chromogenic substrate solution (S-2366, Chromogenix, Mölndal, Sweden) in assay buffer and finally 12 μL of α-thrombin solution (Human α-thrombin, Sigma Chemical Co. or Hematologic Technologies) in assay buffer, were added, and the samples mixed. The final assay concentrations were: test substance 0.00068-13.3 μmol/L, S-2366 0.30 mmol/L, α-thrombin 0.020 NIHU/mL. The linear absorbance increment during 40 minutes incubation at 37° C. was used for calculation of percentage inhibition for the test samples, as compared to blanks without inhibitor. The IC50-robotic value, corresponding to the inhibitor concentration which causes 50% inhibition of the thrombin activity, was calculated from a log concentration vs. % inhibition curve.

[3] = test system: human plasma; assay: Test C: prothrombin time (PT) assay; type: biochemical; details: Thromborel S, doubling of the clotting time
Procedure: Prothrombin Time (PT) Assay
The following reagents were prepared: An aliquot of a frozen human plasma pool, containing citrate as an anticoagulant, was rapidly thawed at 37° C. A 10 mM stock solution of the inhibitor in DMSO was diluted with saline containing 0.1% BSA to a final 1% of DMSO. Series dilutions were made in steps of 1:3 for a dose response titration. Thromborel® S from Dade Behring GmbH (Marburg, Germany), was reconstituted 1:10 with 25 mM CaCl2, according to the instructions of the manufacturer. 2.5μL of inhibitor was mixed with 22.5 μL human plasma, incubated for 1 min. at 37° C. in the cup of an Amelung KC10 microcoagulometer from Heinrich Amelung GmbH (Lemgo, Germany). Coagulation was initiated by addition of 50 μL Thromborel S, which was pre-warmed at 37° C. The time to clot was determined (CTI) for each inhibitor concentration ([I]) in duplo. A titration curve was made by plotting the inverse clotting time versus the inhibitor concentration. The IC50 value, the time to double the clotting time, was determined by non-linear regression to the equation:
CT0/CTI=1/(1+([I]/IC50)^S)
where “CT0”=the clotting time without inhibitor added, and “s” the slope.

[4] = target: T2, Recombinant human factor VIIa (Homo sapiens, UniProt P08709); assay: Test A: chromogenic robot method for Factor VIIa; type: biochemical
T2 construct: Recombinant human factor VIIa (rFVIIa, product no 407); purchased American Diagnostica Inc. product no 407 (rFVIIa); product no 4500 (rTF)
Procedure: Chromogenic Robot Method for Factor VIIa:
The chromogenic substrate Spectrozyme FVIIa, CH3SO2-D-CHA-But-Arg-pNA (pefachrome 5979 from Pentapharm, Switzerland) was purchased from American-Diagnostica Inc. (Greenwich, Conn., U.S.A.). The KM under the conditions of the assay was determined separately. Recombinant human factor VIIa (rFVIIa, product no 407) and non-lipidated recombinant human tissue-factor (rTF, product no 4500) were purchased from American Diagnostica Inc. The stock solutions of rFVIIa (1.08 mg protein dissolved with 1 mL water to 21.6 μM in 20 mM Tris-HCl, 100 mM NaCl, pH 7.4) and rTF (1 mg protein with 1.5 mL water to 19 μM in 50 mM Tris-HCl, pH 8.0, 150 mM NaCl, CHAPS (3-((3-cholamidopropyl)dimethylammoniol)-1-propanesulphonate; 10 mM) and 200 mM mannitol) were stored in 0.5 mL reagent tubes at −80° C. […] After mixing and incubation for 40 minutes at 37° C., the optical absorbance difference was read at 405 nm. The IC50 value for each compound was calculated by non-linear regression to the equation:
Where AI=the final absorbance at 405 nm in the presence of the inhibitor, A0=in the absence of inhibitor, and s the slope in the dose titration curve, which has the theoretical value of 1 for a pure competitive inhibitor. […]

[5] = mixture 0.08 (A) + 1.5 (B) μmol/L
[6] = mixture 0.18 (A) + 3.2 (B) μmol/L
[7] = mixture 0.27 (A) + 4.9 (B) μmol/L

T2 sequence (P08709 213-466 limits assumed): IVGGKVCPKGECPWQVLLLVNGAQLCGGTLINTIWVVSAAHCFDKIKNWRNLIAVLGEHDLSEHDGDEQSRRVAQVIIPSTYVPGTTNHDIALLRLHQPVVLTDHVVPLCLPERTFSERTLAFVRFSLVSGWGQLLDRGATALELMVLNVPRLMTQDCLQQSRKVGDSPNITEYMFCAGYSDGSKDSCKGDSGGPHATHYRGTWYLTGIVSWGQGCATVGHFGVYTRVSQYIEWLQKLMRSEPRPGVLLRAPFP
T2 sequence (P08709 61-212 limits assumed): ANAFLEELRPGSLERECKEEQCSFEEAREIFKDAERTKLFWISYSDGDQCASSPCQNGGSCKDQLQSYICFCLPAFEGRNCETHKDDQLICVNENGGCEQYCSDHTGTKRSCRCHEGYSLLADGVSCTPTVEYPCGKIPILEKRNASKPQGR
T2 sequence (P13726 33-295 partner): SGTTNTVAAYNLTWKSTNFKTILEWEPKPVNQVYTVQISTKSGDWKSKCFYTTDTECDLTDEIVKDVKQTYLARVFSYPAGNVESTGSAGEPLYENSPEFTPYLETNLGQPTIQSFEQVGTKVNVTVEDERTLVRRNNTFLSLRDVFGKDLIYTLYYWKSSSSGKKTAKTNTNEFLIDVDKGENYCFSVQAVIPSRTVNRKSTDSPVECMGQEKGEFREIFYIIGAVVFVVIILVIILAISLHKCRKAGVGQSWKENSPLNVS

## N=C(N)c1ccc(CNC(=O)[C@@H]2CCN2C(=O)[C@H](NCC(=O)O)C2CCCCC2)cc1 [Compound A, HOOC—CH2—(R)Cgl-Aze-Pab-H]
[1]; Compound A + A, 0.08 + 0.08 = 0.16 μmol/L
  APTT: 51.8 s
[1]; Compound A + A, 0.18 + 0.18 = 0.36 μmol/L
  APTT: 62.4 s
[1]; Compound A + A, 0.27 + 0.27 = 0.54 μmol/L
  APTT: 71.9 s
[1]; Cp A 0.08 μmol/L
  APTT percentage prolongation over the baseline value: 24%
[1]; Cp A 0.08 μmol/L, baseline 36.8 s
  APTT: 45.8 s
[1]; Cp A 0.18 μmol/L
  APTT percentage prolongation over the baseline value: 46%
[1]; Cp A 0.18 μmol/L, baseline 36.8 s
  APTT: 53.8 s
[1]; Cp A 0.27 μmol/L
  APTT percentage prolongation over the baseline value: 61%
[1]; Cp A 0.27 μmol/L, baseline 36.8 s
  APTT: 59.2 s
[1]; Cp A 0.56 μmol/L
  APTT percentage prolongation over the baseline value: 96%
[1]; Cp A 0.56 μmol/L, baseline 36.8 s
  APTT: 72.1 s
[1]; [5]
  concentration of A required to reach the same APTT prolongation as that of the mixture (Ae): 0.21 µmol/L
[1]; [6]
  concentration of A required to reach the same APTT prolongation as that of the mixture (Ae): 0.53 µmol/L
[1]; [7]
  concentration of A required to reach the same APTT prolongation as that of the mixture (Ae): 0.83 µmol/L

## CC(C)C[C@H](NC(=O)[C@H](NS(=O)(=O)Cc1cccc(C(=O)O)c1)C(C)C)C(=O)NCc1ccc(C(=N)N)cc1 [Example 1, N-[(3-Carboxybenzyl)sulfonyl]-D-valyl-N^1-{4-[amino(imino)methyl]-benzyl}-L-leucinamide]
[2]
  pIC50: 5.21
[1]; Cp B 1.50 μmol/L
  APTT percentage prolongation over the baseline value: 26%
[1]; Cp B 1.50 μmol/L, baseline 35.7 s
  APTT: 45.2 s
[1]; Cp B 3.20 μmol/L
  APTT percentage prolongation over the baseline value: 44%
[1]; Cp B 3.20 μmol/L, baseline 35.7 s
  APTT: 51.5 s
[1]; Cp B 4.90 μmol/L
  APTT percentage prolongation over the baseline value: 62%
[1]; Cp B 4.90 μmol/L, baseline 35.7 s
  APTT: 57.7 s
[1]; Cp B 8.30 μmol/L
  APTT percentage prolongation over the baseline value: 105%
[1]; Cp B 8.30 μmol/L, baseline 35.7 s
  APTT: 73.3 s
[1]; [5]
  concentration of B required to reach the same APTT prolongation as that of the mixture (Be): 3.87 µmol/L
[1]; [6]
  concentration of B required to reach the same APTT prolongation as that of the mixture (Be): 7.98 µmol/L
[1]; [7]
  concentration of B required to reach the same APTT prolongation as that of the mixture (Be): 11.80 µmol/L
[3]
  pIC50: 5.42
[4]; Test A, rFVIIa-rTF, Spectrozyme FVIIa 0.2 mM, 40 min 37° C.
  pIC50: 7.19
[4]; conclusion from Tests A, B and C
  selectivity for Factor VIIa: selective inhibitor of Factor VIIa
